US20040229336A1, “Method for in vitro culture of viruses of the togaviridae and flaviviridae families and uses” (Bio Merieux, priority 1999, published 2004)

Legend:
LSR receptor = biological target: T1, LSR receptor (Homo sapiens, UniProt Q86X29); assay: Kinetics of attachment of the LVPs to the LSR receptor of hepatocytes (PLC/PRF/5 cells), quantitative RT-PCR of HCV RNA; type: cell-based; conditions: 0.5 mM oleate vs without oleate, +4° C., 1 to 9 hours
T1 construct: endogenous in cells; host or cells: PLC/PRF/5 human hepatocarcinoma cells
T1 sequence (Q86X29 1-649): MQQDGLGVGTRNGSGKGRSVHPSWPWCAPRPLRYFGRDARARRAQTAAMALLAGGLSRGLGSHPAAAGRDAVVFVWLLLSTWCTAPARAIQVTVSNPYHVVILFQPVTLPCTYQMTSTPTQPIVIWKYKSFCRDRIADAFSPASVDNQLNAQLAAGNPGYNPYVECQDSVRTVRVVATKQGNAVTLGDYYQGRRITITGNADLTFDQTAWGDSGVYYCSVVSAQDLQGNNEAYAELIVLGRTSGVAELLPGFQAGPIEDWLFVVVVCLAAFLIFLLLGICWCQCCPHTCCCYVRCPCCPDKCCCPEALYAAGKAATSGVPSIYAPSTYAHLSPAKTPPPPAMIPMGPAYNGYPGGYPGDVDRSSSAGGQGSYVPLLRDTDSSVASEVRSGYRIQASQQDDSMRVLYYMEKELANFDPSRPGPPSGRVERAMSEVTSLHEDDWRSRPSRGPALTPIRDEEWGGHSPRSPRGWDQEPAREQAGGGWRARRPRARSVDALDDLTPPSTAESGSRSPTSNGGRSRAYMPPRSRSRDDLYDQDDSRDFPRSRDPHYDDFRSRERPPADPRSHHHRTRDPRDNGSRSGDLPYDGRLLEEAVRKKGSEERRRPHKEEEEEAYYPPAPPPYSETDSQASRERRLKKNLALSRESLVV
Experimental: A fraction containing LVPs with a density of between 1.025 g/ml and 1.055 g/ml was obtained from an HCV-positive serum as described in example 1.
The amount of proteins present in the LVP fraction was determined by the Lowry method using the “Protein Assay” kit (Sigma Diagnostics) and the viral titer was evaluated by quantification of the HCV RNA by RT-PCR and real-time fluorescence detection (LightCycler™, Roche) (Wittwer et al., Biotechniques, 22: 176-181 (1997)).
The PLC/PRF/5 cell line, described in example 2 and cultured in DMEM medium-10% SVF, was used for studying the attachment of LVPs to the LSR receptor in the presence or absence of oleate.
The results were obtained according to the following protocol:
The PLC/PRF/5 cells were seeded at 1 million cells/well, so as to obtain, after incubation for 24 hours at 37° C., 5% CO2, approximately 80% confluence.
Two washes in cold 1×PBS buffer were carried out, and then 1 ml of cold complete DMEM medium containing 0.2% of BSA is added to the PLC cells maintained on a bed of ice.
The LVP fraction (i.e. 10 mg of proteins and 1.7×10^6 of copies of HCV RNA) is added to the cells in the presence or absence of 0.5 mM oleate. […]
An incubation was carried out at +4° C. for a period of time ranging from 1 to 9 hours. […] The RNAs were then purified using this same kit and analyzed by quantitative RT-PCR (LightCycler™). […]

hepatitis C virus = assay: Infection of PLC/PRF/5 cells with HCV-positive serum or LVP fractions, HCV genome in culture supernatants by semi-nested RT-PCR; type: cell-based, human
Experimental: The culture medium used is DMEM medium (marketed by Gibco BRL) supplemented with: 1 mM of sodium pyruvate (Gibco), 1% of nonessential amino acids (Boehringer Mannheim), 2 mM of glutamine (Gibco BRL), 200 U/ml of penicillin (bioMérieux), […] of streptomycin (bioMérieux) and 10% of calf serum (Boehringer).
The cells originate from the PLC/PRF/5 cell line (Alexander cells) (ATCC reference: CRL 8024), which is a line established from a human hepatocarcinoma. This line, which has integrated a defective hepatitis B genome, secretes the HBs antigen of the hepatitis B virus but no infectious virus. The cells are cultured in the complete DMEM medium (Gibco-BRL) supplemented with 10% of foetal calf serum, mentioned above. The cells are washed with PBS (Gibco-BRL) preheated to 37° C. 1 ml of DMEM supplemented with 0.2% of BSA (Sigma) and 50 μg/ml of lipoproteins originating from each fraction or 100 μl of serum filtered over a 0.45μ membrane are added. Simultaneously, a solution of oleic acid in isopropanol, prepared beforehand (100 mM), is added in a concentration range of 0.1 to 0.8 mM. The cells are then subjected to incubation for 3 hours at 37° C. under a 5% CO2 atmosphere. The medium is then replaced with complete DMEM medium supplemented with 10% of foetal calf serum. The cells are returned to the incubator under the conditions described above. […]

HCV = assay: Observation in patients infected both with HIV and with HCV taking HIV protease inhibitors; type: in vivo, human
Text: For this reason, it is advantageous to add to the method of the invention at least one apoptosis-modulating agent.

SMILES | attachment of the LVPs to the LSR receptor (number of HCV RNA copies) (LSR receptor) | pathway for endocytosis of the LVPs at the time of the infection (hepatitis C virus; LVP fractions with densities <1.0063, 1.0063-1.063 and >1.063 g/ml) | presence of the HCV genome in the culture supernatants (hepatitis C virus; infection with 100 μl of serum of patients no. 1 and no. 2, with vs without 0.5 mM oleic acid) | HCV viremia and hepatic cytolysis (HCV)
CCCCCCCC/C=C\CCCCCCCC(=O)O [oleic acid] | significantly increased | facilitates the pathway for endocytosis of the LVPs | detected at a higher frequency | –
CC(C)c1nc(CN(C)C(=O)N[C@H](C(=O)N[C@@H](Cc2ccccc2)C[C@H](O)[C@H](Cc2ccccc2)NC(=O)OCc2cncs2)C(C)C)cs1 [Ritonavir] | – | – | – | increase in the HCV virema associated with hepatic cytolysis
